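Step 1: Grow cells in 96-well plates. Step 2: Expose to compound for 48 hours at 5 concentrations. Step 3: Interpolate endpoints linearly; if unreached, use highest concentration. TGI: concentration producing complete growth inhibition.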
How the values were obtained:
Assay in all cases: growth of human tumour cells (NCI), 48 h
CCRF-CEM leukemia = tested on: CCRF-CEM leukemia
786-0 renal = tested on: 786-0 renal
OVCAR-3 ovarian = tested on: OVCAR-3 ovarian
HOP-92 NSCLC = tested on: HOP-92 NSCLC
MALME-3M melanoma = tested on: MALME-3M melanoma
NCI-H460 lung = tested on: NCI-H460 lung
MOLT-4 leukemia = tested on: MOLT-4 leukemia
SF-268 CNS = tested on: SF-268 CNS
NCI-H226 lung = tested on: NCI-H226 lung
M14 melanoma = tested on: M14 melanoma
ACHN renal = tested on: ACHN renal
HL-60(TB) leukemia = tested on: HL-60(TB) leukemia
OVCAR-5 ovarian = tested on: OVCAR-5 ovarian
SF-295 CNS = tested on: SF-295 CNS
SN12C renal = tested on: SN12C renal
RXF 393 renal = tested on: RXF 393 renal
HOP-62 NSCLC = tested on: HOP-62 NSCLC
SK-MEL-5 melanoma = tested on: SK-MEL-5 melanoma
K-562 leukemia = tested on: K-562 leukemia
DU-145 prostate = tested on: DU-145 prostate

Compound	TGI (CCRF-CEM leukemia) [µM]	TGI (786-0 renal) [µM]	TGI (OVCAR-3 ovarian) [µM]	TGI (HOP-92 NSCLC) [µM]	TGI (MALME-3M melanoma) [µM]	TGI (NCI-H460 lung) [µM]	TGI (MOLT-4 leukemia) [µM]	TGI (SF-268 CNS) [µM]	TGI (NCI-H226 lung) [µM]	TGI (M14 melanoma) [µM]	TGI (ACHN renal) [µM]	TGI (HL-60(TB) leukemia) [µM]	TGI (OVCAR-5 ovarian) [µM]	TGI (SF-295 CNS) [µM]	TGI (SN12C renal) [µM]	TGI (RXF 393 renal) [µM]	TGI (HOP-62 NSCLC) [µM]	TGI (SK-MEL-5 melanoma) [µM]	TGI (K-562 leukemia) [µM]	TGI (DU-145 prostate) [µM]
COC(=O)C(=O)C1CCCCC(C2=NC3NN=C(N)N3C2=O)C1=O (stereo not drawn)	> 100	> 100	> 100	> 100	> 100	> 100	> 100	> 100	> 100	> 100	> 100	> 100	> 100	> 100	> 100	> 100	> 100	> 100	> 100	
CCOC(=O)c1c(C(F)(F)F)oc2c1ccc1nc3nonc3nc12	5.69	25.3	30.4	27.3	32	49.6	12.6	38.6	36.1	21	29.4	32.5	31.6	> 63.3	31.7	16.4	18.9	26.7	13.9	
O=C(N/C(=C/c1ccc(Cl)cc1)c1nc2ccccc2c(=O)n1Nc1ccc([N+](=O)[O-])cc1[N+](=O)[O-])c1ccccc1	> 100	> 100	> 100	> 100	> 100	> 100	> 100		> 100	> 100			> 100	> 100	> 100		> 100	> 100	> 100	
CC(C)c1cccc(C(C)C)c1NC1=CC(=O)C(=O)c2ccccc21	> 100	> 100	> 100	> 100	> 100	> 100	> 100	> 100	> 100	> 100		> 100	> 100	> 100	> 100	> 100	> 100	> 100	> 100	
CN(NC(=O)c1cccs1)C1=NCCN1	> 100	> 100	> 100	> 100	> 100	> 100	> 100	> 100	> 100	> 100	> 100	> 100	> 100	> 100		> 100	> 100	> 100	> 100	
Cn1c2c(cc(-c3ccccc3)c1=O)COc1ccccc1-2	57.5	> 100	> 100	> 100	50.8	70.7	47.2	> 100	> 100	94.4	91.9	56.1	54.1	74.9	> 100	> 100	> 100	39.9	53.2	
CO[C@H](c1ccccc1)[C@H](C)N(C)c1ccc2ccccc2c1C1=NC(C)(C)CO1	48.9	30.1	30.7	30.6	33	33	39.3	36.1	34.8	33.6	36.4	61.3		30.8	33.2	27.6	36	> 100	88.5	
CCCCCC(=O)Cc1cc(OC)cc2c1C(=O)Oc1cc(O)c(C(=O)O)c(CC(=O)CCCCC)c1O2	> 100	37.7	43.8		> 100	> 100	> 100	> 100	> 100	> 100	> 100	> 100	> 100	> 100			> 100	> 100	> 100	
N#C/C(=C\c1ccc(O)cc1O)C(N)=O	> 100	> 100	> 100	> 100	> 100	> 100	> 100	> 100	> 100	> 100	> 100	> 100	> 100	> 100	> 100	83.5	> 100		> 100	
CC1=NN(c2ccccc2)C(=O)C1=C1SCCCS1	39	> 100	70.7	64	> 100	> 100	36.1	> 100	> 100	> 100	> 100	41.9	> 100	73.7	83.2	60.7	> 100	> 100	47.6	
Nc1ccc(C(=O)NN2C(=O)C(Cl)C2c2cccc([N+](=O)[O-])c2)cc1 (stereo not drawn)	30.4	33.1	41.8	40.7	35.6	> 100	37.5	38.6	36.8	39.6	50.9	41.4	37.7	43.1	36.9		41.6	34.3	47.5	
O=C(/C=C/c1ccc(F)c(F)c1)OCCc1ccccc1	> 100	> 100	> 100		> 100	> 100	> 100	> 100	> 100	> 100	> 100	> 100	> 100	> 100	> 100		> 100	> 100	> 100	> 100
COC1=CC(=O)c2ccccc2C1(C)C1=NC(C)(C)CO1 (stereo not drawn)	> 100	> 100	> 100	> 100	> 100	> 100	> 100	> 100	> 100	> 100	> 100	> 100		> 100	> 100	> 100	> 100	> 100	> 100	

From PubChem BioAssay (NCI)
